# Test results reported in patent publication US7078195B2, “Antibiotics AA-896” (Wyeth Holdings Corporation, priority 2001, dated 2006).
# How the values were obtained:
# Test in all cases: Broth dilution MIC
# Type in all cases: cell-based
# Conditions in all cases: Mueller-Hinton broth, 18 hours at 35° C.
# CNS GC 4537 = tested on: CNS GC 4537
# Protocol: (§1) The in vitro antibacterial activity of AA-896-A1, AA-896-A2, AA-896-A3, AA-896-A4, AA-896-A5, AA-896-B1, AA-896-B2, AA-896-B3, AA-896-B4, AA-896-B5, AA-896-B6, AA-896-B7, AA-896-C1, AA-896-C2, AA-896-C3, AA-896-C4, AA-896-D1, AA896-D2 and AA-896-D3 is determined against a spectrum of Gram-positive and Gram-negative bacteria by a standard broth dilution method. Serial dilution of the compounds are made in Mueller-Hinton broth and inoculated with a bacterial suspension. The lowest concentration of compound that inhibited the growth of a bacterial strain after 18 hours of incubation at 35° C. is reported as the minimal inhibitory concentration (MIC) for that strain.
# CNS GC 4538 = tested on: CNS GC 4538
# Protocol: as §1
# CNS GC 4547 = tested on: CNS GC 4547
# Protocol: as §1
# E. cloacae GC 3783 = tested on: E. cloacae GC 3783
# Protocol: as §1
# E. coli GC 2203 = tested on: E. coli GC 2203
# Protocol: as §1
# E. coli GC 3226 = tested on: E. coli GC 3226
# Protocol: as §1
# E. coli GC 4559 = tested on: E. coli GC 4559
# Protocol: as §1
# E. coli GC 4560 = tested on: E. coli GC 4560
# Protocol: as §1
# E. faecalis GC 242 = tested on: E. faecalis GC 242
# Protocol: as §1
# E. faecalis GC 4555 = tested on: E. faecalis GC 4555
# Protocol: as §1
# E. faecalis GC 842 = tested on: E. faecalis GC 842
# Protocol: as §1
# K. pneumoniae GC 4534 = tested on: K. pneumoniae GC 4534
# Protocol: as §1
# M. morganii GC 4531 = tested on: M. morganii GC 4531
# Protocol: as §1
# P. aeruginosa GC 2214 = tested on: P. aeruginosa GC 2214
# Protocol: as §1
# P. aeruginosa GC 4532 = tested on: P. aeruginosa GC 4532
# Protocol: as §1
# P. rettgeri GC 4530 = tested on: P. rettgeri GC 4530
# Protocol: as §1
# S. aureus GC 1131 = tested on: S. aureus GC 1131
# Protocol: as §1
# S. aureus GC 2216 = tested on: S. aureus GC 2216
# Protocol: as §1
# S. aureus GC 4536 = tested on: S. aureus GC 4536
# Protocol: as §1
# S. marcescens GC 4077 = tested on: S. marcescens GC 4077
# Protocol: as §1
Compound,Antimicrobial Activity (MIC) (CNS GC 4537) [µg/mL],Antimicrobial Activity (MIC) (CNS GC 4538) [µg/mL],Antimicrobial Activity (MIC) (CNS GC 4547) [µg/mL],Antimicrobial Activity (MIC) (E. cloacae GC 3783) [µg/mL],Antimicrobial Activity (MIC) (E. coli GC 2203) [µg/mL],Antimicrobial Activity (MIC) (E. coli GC 3226) [µg/mL],Antimicrobial Activity (MIC) (E. coli GC 4559) [µg/mL],Antimicrobial Activity (MIC) (E. coli GC 4560),Antimicrobial Activity (MIC) (E. faecalis GC 242) [µg/mL],Antimicrobial Activity (MIC) (E. faecalis GC 4555) [µg/mL],Antimicrobial Activity (MIC) (E. faecalis GC 842) [µg/mL],Antimicrobial Activity (MIC) (K. pneumoniae GC 4534) [µg/mL],Antimicrobial Activity (MIC) (M. morganii GC 4531) [µg/mL],Antimicrobial Activity (MIC) (P. aeruginosa GC 2214) [µg/mL],Antimicrobial Activity (MIC) (P. aeruginosa GC 4532) [µg/mL],Antimicrobial Activity (MIC) (P. rettgeri GC 4530) [µg/mL],Antimicrobial Activity (MIC) (S. aureus GC 1131) [µg/mL],Antimicrobial Activity (MIC) (S. aureus GC 2216) [µg/mL],Antimicrobial Activity (MIC) (S. aureus GC 4536) [µg/mL],Antimicrobial Activity (MIC) (S. marcescens GC 4077) [µg/mL]
"5-O-[5-Amino-5-deoxy-β-D-ribofuranosyl]-6-[[3-[3-[[13-(carbamimidoylhydroxyamino)-tridecanoyl]oxy]-2-[2-[[(1-carboxy-2-methylpropyl)carbamoyl]amino]-2-(hexahydro-2-iminopyrimidin-4-yl)acetamido]-4-methylpentanamido]propyl]amino]-1,6-dideoxy-1-(3,4-dihydro-2,4-dioxopyrimidin-1(2H)-yl)-β-D-heptofuranuronic acid [AA-896-A4]",4,2,8,1,16,8,32,0.12 µg/mL,32,32,32,>32,>32,32,32,>32,8,4,8,>32
"CCC(C)CCCCC(=O)OC(C(C)C)C(NC(=O)C(NC(=O)NC(C(=O)O)C(C)C)C1CCNC(=N)N1)C(=O)NCCCNC(C(=O)O)C(O[C@@H]1O[C@H](CN)[C@@H](O)[C@H]1OC)C1OC(n2ccc(=O)[nH]c2=O)C(O)C1O (stereo partly drawn) [AA-896-B3, 5-O-[5-Amino-5-deoxy-2-O-methyl-β-D-ribofuranosyl]-6-[[3-[2-[2-[[(1-carboxy-2-methyl-propyl)carbamoyl]amino]-2-(hexahydro-2-iminopyrimidin-4-yl)acetamido]-4-methyl-3-[(6-methyloctanoyl)oxy]pentanamido]propyl]amino]-1,6-dideoxy-1-(3,4-dihydro-2,4-dioxopyrimidin-1(2H)-yl)-β-D-heptofuranuronic acid]",>32,>32,>32,16,>32,32,>32,0.06 µg/mL,>32,>32,>32,>32,>32,>32,>32,>32,>32,>32,>32,>32
"COC1C(OC(C(NCCCNC(=O)C(NC(=O)C(NC(=O)NC(C(=O)O)C(C)C)C2CCNC(=N)N2)C(OC(=O)CCCCCC(C)C)C(C)C)C(=O)O)C2OC(n3ccc(=O)[nH]c3=O)C(O)C2O)OC(CN)C1O [AA-896-B4, 5-O-[5-Amino-5-deoxy-2-O-methyl-β-D-ribofuranosyl]-6-[[3-[2-[2-[[(1-carboxy-2-methyl-propyl)carbamoyl]amino]-2-(hexahydro-2-iminopyrimidin-4-yl)acetamido]-4-methyl-3-[(7-methyloctanoyl)oxy]pentanamido]propyl]amino]-1,6-dideoxy-1-(3,4-dihydro-2,4-dioxopyrimidin-1(2H)-yl)-β-D-heptofuranuronic acid]",64,32,>64,8,32,64,8,<=0.06 μg/ml,>64,64,>64,16,>64,32,64,>64,64,64,64,>64
"COC1C(OC(C(NCCCNC(=O)C(NC(=O)C(NC(=O)NC(C(=O)O)C(C)C)C2CCNC(=N)N2)C(O)C(C)C)C(=O)O)C2OC(n3ccc(=O)[nH]c3=O)C(O)C2O)OC(CN)C1O [AA-896-C1, 5-O-[5-Amino-5-deoxy-2-O-methyl-β-D-ribofuranosyl]-6-[[3-[2-[2-[[(1-carboxy-2-methyl-propyl)carbamoyl]amino]-2-(hexahydro-2-iminopyrimidin-4-yl)acetamido]-3-hydroxy-4-methylpentanamido]propyl]amino]-1,6-dideoxy-1-(3,4-dihydro-2,4-dioxopyrimidin-1(2H)-yl)-β-D-heptofuranuronic acid]",>32,>32,>32,32,32,32,>32,1 µg/mL,>32,>32,>32,>32,>32,32,>32,>32,>32,>32,>32,>32
"CC(C)C(NC(=O)NC(C(=O)NC(C(=O)NCCCNC(C(=O)O)C(O[C@@H]1O[C@H](CN)[C@@H](O)[C@H]1O)C1OC(n2ccc(=O)[nH]c2=O)C(O)C1O)C(O)C(C)C)C1CCNC(=N)N1)C(=O)O (stereo partly drawn) [AA-896-C2, 5-O-[5-Amino-5-deoxy-β-D-ribofuranosyl]-6-[[3-[2-[2-[[(1-carboxy-2-methylpropyl)-carbamoyl]amino]-2-(hexahydro-2-iminopyrimidin-4-yl)acetamido]-3-hydroxy-4-methyl-pentanamido]propyl]amino]-1,6-dideoxy-1-(3,4-dihydro-2,4-dioxopyrimidin-1(2H)-yl)-β-D-heptofuranuronic acid]",>32,>32,>32,16,16,16,>32,2 µg/mL,>32,>32,>32,>32,>32,32,32,>32,>32,>32,>32,>32
